For one data set, the system named is H322. In words: Therapeutic effect of cancer cell line, IC50. The conditions noted are these: NCI-H322; H322, NAPRT expression negative. Type of data set: cell-based.
The subject of another data set is H661. As to the kind of experiment: Therapeutic effect of cancer cell line, IC50. The format is cell-based. The conditions noted are these: Homo sapiens, NCI-H661; H661, NAPRT expression negative.
A further data set relates to H1115. In words: Therapeutic effect of cancer cell line, IC50. Type of data set: cell-based. The conditions noted are these: H1115, NAPRT expression negative.
The nature of data set [1]: Microsome stability evaluation. Type of data set: in vitro ADME, human. The conditions noted are these: after 30 minutes, 1 μM compound, 0.3 mg/ml microsomal protein, 1 mM NADPH. The protocol:
(§1) Metabolic stability was assessed using human liver microsomes and mouse liver microsomes. Specifically, pooled male mouse liver microsomes (in-house preparation per SOP), pooled human liver microsomes (XENOTECH; […] The reaction was stopped by addition of acetonitrile ([…]) containing the same volume of internal standard. The precipitated proteins were removed by centrifugation and the supernatant was analyzed by LC/MS-MS method. […] Residual % parent compound=(peak area at time x/peak area at TO)×100.

Data set [2] in a line: Microsome stability evaluation. Type of data set: in vitro ADME, mouse. The conditions noted are these: after 30 minutes, 1 μM compound, 0.3 mg/ml microsomal protein, 1 mM NADPH. As for the experimental part:
as §1

Another data set deals with hERG channel (Homo sapiens, UniProt Q12809). In words: hERG screening by fluorescence polarization with red fluorescent hERG channel ligand tracer. Type of data set: binding. The conditions noted are these: probe high affinity red fluorescent hERG channel ligand tracer, mean±standard deviation, read-out: % inhibition capacity.
hERG channel, sequence (Q12809 whole entry): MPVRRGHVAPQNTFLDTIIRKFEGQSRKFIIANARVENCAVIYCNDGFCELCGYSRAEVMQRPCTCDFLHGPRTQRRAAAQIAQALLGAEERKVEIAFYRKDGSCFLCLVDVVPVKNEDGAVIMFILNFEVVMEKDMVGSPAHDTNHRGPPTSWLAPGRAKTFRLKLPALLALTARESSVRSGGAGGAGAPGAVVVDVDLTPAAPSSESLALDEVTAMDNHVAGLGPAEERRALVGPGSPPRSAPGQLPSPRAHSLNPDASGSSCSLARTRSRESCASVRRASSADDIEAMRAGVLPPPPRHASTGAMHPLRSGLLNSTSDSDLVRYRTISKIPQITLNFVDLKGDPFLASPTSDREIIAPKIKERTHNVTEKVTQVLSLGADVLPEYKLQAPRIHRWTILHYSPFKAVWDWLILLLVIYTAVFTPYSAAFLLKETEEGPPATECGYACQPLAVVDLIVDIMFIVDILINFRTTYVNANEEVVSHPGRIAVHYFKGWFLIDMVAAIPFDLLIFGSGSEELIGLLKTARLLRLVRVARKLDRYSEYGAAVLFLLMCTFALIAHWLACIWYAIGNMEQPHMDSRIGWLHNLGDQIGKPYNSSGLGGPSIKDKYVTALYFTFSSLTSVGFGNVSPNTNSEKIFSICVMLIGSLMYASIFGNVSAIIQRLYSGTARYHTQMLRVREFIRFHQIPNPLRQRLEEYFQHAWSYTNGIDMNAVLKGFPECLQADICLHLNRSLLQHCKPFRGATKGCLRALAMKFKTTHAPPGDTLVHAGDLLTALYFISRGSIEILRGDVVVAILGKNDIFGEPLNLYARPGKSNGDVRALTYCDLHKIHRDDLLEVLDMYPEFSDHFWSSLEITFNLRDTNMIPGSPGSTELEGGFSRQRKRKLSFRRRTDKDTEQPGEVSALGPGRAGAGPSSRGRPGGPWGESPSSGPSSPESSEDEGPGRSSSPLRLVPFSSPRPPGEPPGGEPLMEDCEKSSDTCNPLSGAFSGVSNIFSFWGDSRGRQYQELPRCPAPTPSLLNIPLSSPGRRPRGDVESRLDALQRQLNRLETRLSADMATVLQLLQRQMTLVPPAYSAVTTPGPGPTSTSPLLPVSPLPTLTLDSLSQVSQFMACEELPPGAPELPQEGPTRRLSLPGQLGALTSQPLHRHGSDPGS
Another data set concerns the target hERG K+ channel (Homo sapiens, UniProt Q12809). In words: hERG K+ channel activity evaluation, patch clamp. (In general: Block of hERG is tested as a sign of cardiac risk.)
In data set [3] the test system is H322, H661, H1155, H1993, H1975, H2030, H1299, H2122 and HBEC30. As to the kind of experiment: Viability of various cancer cell lines by concentration (NAPRT positive vs negative). The format is cell-based.
The subject of another data set is Primary cardiomyocyte. In words: Toxicity assessment in normal cell line, cell viability. Type of data set: cell-based. The conditions noted are these: high concentrations.
Data set [4] deals with retinal pigment epithelium cell (RPE). The data set is described as above. Type of data set: cell-based. The conditions noted are these: high concentrations.
The next data set concerns liver cell (THLE-2). The description is as above. The format is cell-based.
Another data set relates to liver cell (THLE-3). In words: Toxicity evaluation in normal cell line, cell viability. The format is cell-based. The conditions noted are these: THLE3; THLE-3, FIG. 26.

Some results are limits rather than exact numbers.

hERG K+ channel, sequence (Q12809 whole entry): as above
Procedure for hERG K+ channel: In addition, as the hERG K+ channel activity evaluation, the potential risk of log QT prolongation according to the dose used was evaluated by measuring the current inhibition according to the drug using a patch clamp technique and evaluating the IC50.

With `O=C(NCc1ccc(-c2nc3ccc(Cl)cc3o2)cc1)c1cccnc1` [A4266, N-(4-(6-chlorobenzo[d]oxazol-2-yl)benzyl)nicotinamide], the IC50 (in general, the midpoint of a concentration-inhibition curve) is 30 nM in the data set with H322, 100 nM with H661, 30 nM with H1115 and more than 100000 nM on hERG K+ channel. Moreover, the “Human(%) parent compound remaining” value in data set [1] is reported as more than 99%. Besides, the “Mouse(%) parent compound remaining” value in data set [2] turned out to be 89.3 ± 3.12%. Also, on hERG channel, the inhibition (usually the relative decrease from the control value, in per cent) at 10 µM was less than 1%.
In the case of `O=C(/C=C/c1cccnc1)NCCCCC1CCN(C(=O)c2ccccc2)CC1` [FK866, N-[4-(1-benzoyl-4-piperidinyl)butyl]-3-(3-pyridinyl)-2E-propenamide], the “difference in LD50 values between the NAPRT positive cell line and the negative cell line” value in [3] is “approximately 10 times”. In addition, the “cytotoxicity (cell viability)” value in the data set on Primary cardiomyocyte was “unpredictable cytotoxicity”; in [4], “unpredictable cytotoxicity”; in the data set on liver cell (THLE-2) (THLE-2, high concentrations) it was “unpredictable cytotoxicity”. In addition, the IC50 in the data set on liver cell (THLE-2) (Homo sapiens, THLE-2, FIG. 25) is approximately 50 nM; with liver cell (THLE-3), approximately 50 nM. Also, the “Human(%) parent compound remaining” value in [1] came out at 25.48 ± 1.45%. The “Mouse(%) parent compound remaining” value in data set [2] worked out at 10.26 ± 0.91%.

The record behind these values is patent publication US11795163B2, “Compound for inhibiting nicotinamide phosphoribosyltransferase and composition containing same” (CHECKMATE THERAPEUTICS INC., priority 2016, dated 2023).
